{"source": "patent US10550079B2", "about": "“Artificial self-sufficient cytochrome P450s” (University of Florida Research Foundation, Incorporated, priority 2015, dated 2020)", "key": {"TxtE-BM3R": {"biological_target": "T1, TxtE-BM3R (UniProt C9ZDC6+P14779)", "T1 construct": "P450BM3 (CYP102A1) reductase domain BM3R with its Domcut-predicted native linker, from B. megaterium ATCC 14581 (GenBank J04832.1); made in house; host or cells: E. coli BL21 (DE3)-GOLD", "assay": "Nitration of fluorinated tryptophan substrates by TxtE-BM3R", "type": "biochemical, S. scabies 87.22 / B. megaterium ATCC 14581", "procedure": "(§1) P450 reactions contained 0.5 mM substrate, 1 mM NADP^+, 1 mM glucose, ˜10 units/mL self-prepared glucose dehydrogenase crude extract, 1 mM NOC-5 in 100 μL of Tris-HCl buffer (100 mM, pH 8.0). As the positive control, TxtE reaction was also re-constructed in the above mixture further supplemented with 0.43 μM spinach Fer and 0.33 μM Frd. The reactions were initiated by adding 1.5 μM P450s, and incubated at 20° C., 300 rpm on a thermostat (Eppendorf) for 2 hours. Methanol (200 μl) was then added to stop the reactions. After centrifugation, 10 μl solutions were analyzed by HPLC. […] The flow rate was set as 1.5 ml/min, and the products were detected at 211 nm with a PDA detector. […]\n(§2) P450 reactions contained 0.5 mM substrate, 1 mM NADP^+, 1 mM glucose, ˜10 units/mL self-prepared glucose dehydrogenase crude extract, 1 mM NOC-5 [3-(aminopropyl)-1-hydroxy-3-isopropyl-2-oxo-1-triazene] in 100 μL of Tris-HCl buffer (100 mM, pH 8.0). […] After centrifugation, 10 μl solutions were analyzed by HPLC. […] The 4-NO2-l-tryptophan was synthesized in a large-scale enzymatic reaction to establish a standard curve for product quantification. […] NADPH consumption in enzyme reactions was measured at 340 nm (ε=6.22 mM^−1·cm^−1) with a Shimadzu UV2700 dual beam UV-Vis spectrophotometer. […] The quantity of nitrated product was determined by HPLC analysis as described above. […]"}, "TxtE": {"biological_target": "TxtE (Streptomyces scabiei, UniProt C9ZDC6)", "assay": "Nitration of fluorinated tryptophan substrates by TxtE", "type": "biochemical, S. scabies 87.22", "parameters": "inferred from the pET28 vector and Ni-NTA purification) (C); made in house; host or cells: E. coli BL21 (DE3)-GOLD", "procedure": "as §1, §2"}}, "data": [{"smiles": "N[C@@H](Cc1c[nH]c2cccc(F)c12)C(=O)O", "note": "[4-F-L-tryptophan]", "values": [{"measurement": "overall conversion rate relative to L-tryptophan", "setting": "TxtE-BM3R", "value": "about 20%"}, {"measurement": "overall conversion rate relative to L-tryptophan", "setting": "TxtE", "value": "about 20%"}]}]}
